Results from patent US7019028B2, “Endiandric acid H and its derivatives, process for their preparation and use thereof” (Aventis Pharma Deutschland GmbH, priority 2002, dated 2006).
pIC50: −log10 of the molar value.

Experiments:
[1] = Solubility (characterization of endiandric acid H); type: physicochemical
c-maf = molecular target: T1, c-maf (Mus musculus, UniProt P54843); experiment: Bioassay: human IL-4 promoter/luciferase reporter in c-maf/IL-4 luc/NFAT CHO-K1 cell line; type: cell-based, murine; conditions: CHO-K1 cells with c-maf/IL-4 luc/NFAT vectors, 8 hours incubation; read-out: IC50 in the bioassay (inhibition of luciferase expression)
T1 construct: expressed in transfected cells; host or cells: CHO-K1 (monoclonal line c-maf/IL-4 luc/NFAT)
T1 sequence (P54843 1-370): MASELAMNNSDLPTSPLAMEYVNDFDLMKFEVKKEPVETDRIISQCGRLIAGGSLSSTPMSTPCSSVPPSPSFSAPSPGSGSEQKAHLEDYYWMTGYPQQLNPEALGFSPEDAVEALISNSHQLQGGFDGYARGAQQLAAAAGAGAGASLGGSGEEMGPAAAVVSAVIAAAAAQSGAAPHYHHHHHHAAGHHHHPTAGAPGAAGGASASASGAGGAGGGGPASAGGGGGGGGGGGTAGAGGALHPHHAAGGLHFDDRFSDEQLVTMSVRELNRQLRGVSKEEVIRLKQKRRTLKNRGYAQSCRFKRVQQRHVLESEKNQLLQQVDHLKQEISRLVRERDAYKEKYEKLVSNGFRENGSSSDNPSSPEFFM
Description: The zipper protein c-maf represents the assay target. It plays an important part in the release of mediators of inflammation, especially IL-4, and thus in the manifestation of inflammatory symptoms in asthma and allergies. c-maf is thus an important therapeutic target molecule for asthma, especially if it has an allergic cause. The activity of c-maf is measured in the assay on the basis of the IL-4 transcription rate. Compounds which interfere with the binding of the two transcription factors c-maf and NFAT lead in this case to a reduced expression of luciferase (read-out) through suppression of the transcription of a human IL-4 promoter/luciferase construct. […]
16 hours before the assay, CHO-K1 cells were harvested by trypsinization, washed once with PBS without Ca and Mg, resuspended in Ham's F-12 medium which additionally contained 10% fetal calf serum, 1% antibiotic/antimycotic, 0.001% Pluronic, 300 μg/ml Geneticin and 300 μg/ml Zeocin, and then quantified using a hemocytometer. […]
After the incubation time, the cells are in each case mixed with 3 μl of Bright-Glow™ luciferase assay reagent (Promega Corporation, Madison, USA) per well. The plates are then placed in the dark for 30 minutes and subsequently measured in a CyBiTM Lumax reader. […]
The inhibition was calculated as follows: [1−(LCSsample−LCSposcontr)/(LCSnegcontr−LCSposcontr)]×100(%)

[2] = Stability in the solid state and in solution; type: physicochemical; conditions: solid state; solutions in the pH range between 3 and 8, in particular 4 and 6

For `O=C(O)C[C@@H]1[C@H]2C=C[C@H]3C(c4ccc5c(c4)OCO5)=C[C@@H](O)[C@@H]4C[C@H]1[C@@H]2[C@H]43` [Endiandric acid H, endiandric acid H], the “Solubility in polar organic solvents” value ([1]; polar organic solvents) was “soluble in polar organic solvents”, the Solubility in water ([1]; water) was “only slightly soluble in water” and the pIC50 (c-maf) was 5.82. For the same compound, the Stability [2] was “stable in the solid state and in solutions in the pH range between 3 and 8”.
